Measurements: patent US4999436A, “Aryl-substituted thiophene 3-ols, derivatives and analogs useful as lipoxgenase inhibitors” (Merck & Co., Inc., priority 1989, dated 1991)
“And” between values parts separate entries of the source, which are not always exact repeats. Equal entries are not always repeated.

What was measured:
[1] = target: T1, 5-lipoxygenase (Rattus norvegicus, UniProt P12527); test: PMN5LO assay: inhibition of LTB4 production in A23187-stimulated rat peritoneal PMN (RIA); type: cell-based; details: for IC50: estimated concentration required for 50% inhibition; for inhibition at 0.012 µg/mL: 0.012 μg/ml; for inhibition at 0.33 µg/mL: 0.33 μg/ml
T1 construct: endogenous in cells; host or cells: casein-elicited peritoneal polymorphonuclear leukocytes of male Sprague-Dawley rats
T1 sequence (P12527 1-673): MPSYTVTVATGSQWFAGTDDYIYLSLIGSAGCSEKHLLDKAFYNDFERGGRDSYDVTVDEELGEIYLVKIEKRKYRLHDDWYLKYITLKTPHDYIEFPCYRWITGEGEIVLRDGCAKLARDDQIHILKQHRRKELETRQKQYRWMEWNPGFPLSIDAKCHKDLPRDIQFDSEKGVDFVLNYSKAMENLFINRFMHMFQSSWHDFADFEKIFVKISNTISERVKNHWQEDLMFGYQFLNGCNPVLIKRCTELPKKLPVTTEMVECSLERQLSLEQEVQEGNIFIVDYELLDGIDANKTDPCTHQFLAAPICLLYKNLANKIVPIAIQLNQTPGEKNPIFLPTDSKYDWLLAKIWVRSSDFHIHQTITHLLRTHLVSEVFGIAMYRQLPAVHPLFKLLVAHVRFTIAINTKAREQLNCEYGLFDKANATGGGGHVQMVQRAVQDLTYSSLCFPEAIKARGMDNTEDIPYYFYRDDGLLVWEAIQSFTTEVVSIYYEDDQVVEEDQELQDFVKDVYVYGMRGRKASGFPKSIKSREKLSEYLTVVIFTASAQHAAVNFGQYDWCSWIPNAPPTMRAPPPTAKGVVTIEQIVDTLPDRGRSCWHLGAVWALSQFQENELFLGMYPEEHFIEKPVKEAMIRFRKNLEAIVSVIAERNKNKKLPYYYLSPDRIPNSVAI
Description: (§1) Two screening methods were employed for the purposes of evaluating the biological activities of the compounds of the present invention. The PMN5LO assay is a direct measure of the capacity to inhibit 5-lipoxygenase. The second protocol, RSVM-CO, is a method of determining inhibition of cyclooxygenase enzyme activity and as such it serves as a negative control.
Elicition of Rat Peritoneal polymorphonuclear leukoytes (PMN)
Male Sprague-Dawley rats (about 350 grams) were injected intraperitoneally the day before use with 8 ml of 12% sodium caseinate. The next day the animals were killed by CO2 asphyxiation and the peritoneal cavity lavaged twice with 20 ml of Hanks balanced salts containing 15 mM HEPES (pH 7.4), 1.4 mM Ca^++ and 0.7 mM Mg^++ (Hepes-Hanks). The suspensions were filtered through plastic mesh and centrifuged at […] for 5 minutes. The cells were resuspended in 50 ml Hepes-Hanks and recentrifuged. The PMN pellets were combined and suspended at 1.25×10^7 cells/ml.
The cell suspension was then diluted 1:10, preincubated 5 minutes at 37° C. and distributed in 200 μl aliquots in the wells of 96 well microtiter plates. The wells had previously received samples of the compounds of the present invention, controls, etc., in 25 μl of 0.001% fatty acidfree BSA in Hepes-Hanks. The plates were incubated 2 minutes at 37° C. and then the cells were stimulated to produce LTB4 by the addition of 25 μl of 100 μM calcium ionophore, designated A23187. After 4 minutes at 37° C. the plates were frozen in dry ice.
Radioimmunoassay (RIA) of LTB4
The frozen plates were thawed to 4° C. and 25 μl aliquots removed to V well plates. Antibody to LTB4 (50 μl) was added and, after 15 minutes at room temperature, 50 μl of ^3 H-LTB4 was added and the plates were stored overnight at 4° C. to allow equilibration. The next day the "free" 3H-LTB4 was removed by adsorption to dextran coated charcoal [90 μl per well of a 4% charcoal suspension with 0.25% Dextran T-70 in 10 mM potassium phosphate (pH 7.3) containing lmM EDTA and 0.25 mM thimerasol] during a 10 minute ice temperature incubation. The charcoal was removed by a 10 minute centrifugation at 200 sg. Aliquots of the supernatant were counted in a Packard 460, analyzed in a Masscomp computer and the data drawn up as % inhibition of LTB4 production.

[2] = target: T2, cyclooxygenase (Ovis aries, UniProt P05979); test: RSVM-CO: Ram Seminal Vesicle Microsomal Cyclooxygenase assay; type: biochemical; details: for inhibition at 0.1 µg/mL: 0.1 μg/ml
T2 construct: Ram seminal vesicular glands were trimmed of fat; from tissue; host or cells: ram seminal vesicular glands, microsomal pellet (105K xg)
T2 sequence (P05979 25-600): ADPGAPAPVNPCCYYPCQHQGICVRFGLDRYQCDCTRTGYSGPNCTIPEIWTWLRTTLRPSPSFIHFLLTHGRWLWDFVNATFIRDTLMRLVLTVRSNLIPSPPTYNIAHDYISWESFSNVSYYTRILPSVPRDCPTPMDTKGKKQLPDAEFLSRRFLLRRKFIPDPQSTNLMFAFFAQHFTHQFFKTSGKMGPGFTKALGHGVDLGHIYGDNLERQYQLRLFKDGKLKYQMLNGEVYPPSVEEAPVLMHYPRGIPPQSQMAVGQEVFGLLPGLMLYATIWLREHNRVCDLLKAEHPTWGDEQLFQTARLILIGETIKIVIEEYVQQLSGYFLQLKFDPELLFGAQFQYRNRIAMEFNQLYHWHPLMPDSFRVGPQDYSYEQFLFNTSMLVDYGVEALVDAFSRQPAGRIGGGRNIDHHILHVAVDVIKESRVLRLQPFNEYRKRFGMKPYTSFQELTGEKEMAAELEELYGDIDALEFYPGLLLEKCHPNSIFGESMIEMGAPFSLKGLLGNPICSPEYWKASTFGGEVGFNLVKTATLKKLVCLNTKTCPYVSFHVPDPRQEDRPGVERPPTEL
Excerpt: as §1
B. Ram Seminal Vesicle Microsomal Cyclooxygenase (RSVM-CO) Assay Protocol
Ram seminal vesicular glands were trimmed of fat, 50 grams diced into 250 mls ice cold 0.1 M potassium phosphate (pH 7.6) buffer and homogenized using a Brinkman Polytron. The suspension was centrifuged 10 minutes at […] (4° C.) and the supernatant filtered through two cheesecloth layers. The filtrate was centrifuged 160 minutes at 105K xg, the supernatant thereof discarded, and the pellet surface rinsed with a small volume of buffer. The pellets were combined in a small volume, briefly homogenized with the Polytron and frozen in 0.5 ml aliquots at -80° C. The protein concentration was about 50 mg/ml.
The thawed enzyme was diluted 1:63 with 0.125 M Na EDTA (pH 8.0) containing 50 μg/ml BSA. A substrate-cofactor premix was prepared with 66 μM ^14 C-arachidonic acid (about 20K cpm/12.5 μl) in 500 μl 0.125 M Na EDTA (pH 8.0) plus 10 μl 50 mM hydroquinone and 10 μl 200 mM glutathione. To each sample well in the 96 well plate, agents dissolved in 0.5 μ DMSO were added, followed by 12.5 μl of the diluted enzyme. After a 4 minute preincubation at room temperature, 12.5 μl of the substrate-cofactor mix was added to start the reaction. The reaction was terminated after 20 minutes at room temperature by adding 25 μl of methanol containing 200 μg PGE2 and 400 μg AA per ml.
The entire reaction mixture was spotted onto a preadsorbent silica gel GF thin layer plate and, after air drying 45 minutes, developed 12 cm in ethyl acetate:glacial acetic acid (99:1).
The developed lanes were scanned for the distribution of radiolabel using a Bioscan Imaging Detector and the integrated peaks compared to standards and controls yielding % inhibition.

Row | SMILES | inhibition at 1 µg/mL ([1]; 1 μg/ml) [%] | PMN5LO % inhibition ([1]; 1 μg/ml) | IC50 [1] [nM] | inhibition at 0.012 µg/mL [1] [%] | inhibition at 0.33 µg/mL [1] [%] | inhibition at 0.037 µg/mL ([1]; 0.037 μg/ml) [%] | inhibition at 0.11 µg/mL ([1]; 0.11 μg/ml) [%] | further results
1 | CC(=O)Oc1cc(-c2cccc(C(F)(F)F)c2)sc1-c1ccccc1 [Compound 5] | 38 | – | – | – | – | – | – | –
2 | CCC(=O)Oc1cc(-c2cccc(C(F)(F)F)c2)sc1-c1ccccc1 [Compound 6] | 22 | – | – | – | – | – | – | –
3 | CC(=O)Oc1c(-c2ccccc2)sc(-c2ccccc2)c1-c1ccccc1 [Compound 7] | – | 10% and 0% | > 3000 | – | – | – | – | inhibition at 0.01 µg/mL ([2]; 0.01 μg/ml): 0%; inhibition at 0.1 µg/mL [2]: 0%; inhibition at 1 µg/mL ([2]; 1 μg/ml): 12%; inhibition at 5 µg/mL ([2]; 5 μg/ml): 76%
4 | CC(=O)Oc1c(-c2ccccc2)sc(-c2ccccc2)c1-c1ccccc1 [Compound 8] | – | 18% | – | – | – | – | – | –
5 | CC(=O)Oc1c(C)sc(-c2ccccc2)c1-c1ccccc1 [Compound 9] | 13 | – | – | – | – | – | – | –
6 | COCC(=O)Oc1cc(-c2ccccc2)sc1-c1ccccc1 [Compound 10] | – | 58% | 200 | 0 | 100 | – | – | PMN5LO % inhibition ([1]; 0.037 μg/ml): 28% and 51%; PMN5LO % inhibition ([1]; 0.11 μg/ml): 73%; IC50 ([1]; unit inferred): 110 nM; inhibition at 0.1 µg/mL [2]: 60%
7 | Cc1ccccc1-c1cc(O)c(-c2ccccc2)s1 [Compound 18, 3-Hydroxy-5-(2-methylphenyl)-2-phenylthiophene] | 96 | – | 120 | 20 | 100 | 46 | 96 | –
8 | COc1cc(-c2ccccc2)sc1-c1ccccc1 [Compound 19] | 0 | – | – | 0 | 0 | 0 | 0 | –
9 | COc1ccc(-c2sc3c(c2OC(C)=O)CCCc2ccccc2-3)cc1 [Compound 20] | – | – | > 3000 | – | – | – | – | –
10 | Oc1cc(-c2ccccc2)sc1-c1cccnc1 [Compound 22] | 87 | – | – | 14 | 81 | 19 | 45 | –
